The record followed here is paper PMC4965010 (PLoS ONE, 2016).

Usually inhibition stands for the drop in the measured response relative to a control, in per cent. A word on the IC50: it is the point on the concentration scale where inhibition reaches its midpoint. A high value points to weaker potency in that assay.

Read-outs that look alike come from different tables or passages of the source. Marks after values point to notes of the source that are not given here.

In this test the target is T1, human FXIIIa (Homo sapiens, UniProt P00488).
T1 construct: purchased Haematologic Technologies (Essex Junction, VT)
T1 sequence (P00488 39-732 limits assumed): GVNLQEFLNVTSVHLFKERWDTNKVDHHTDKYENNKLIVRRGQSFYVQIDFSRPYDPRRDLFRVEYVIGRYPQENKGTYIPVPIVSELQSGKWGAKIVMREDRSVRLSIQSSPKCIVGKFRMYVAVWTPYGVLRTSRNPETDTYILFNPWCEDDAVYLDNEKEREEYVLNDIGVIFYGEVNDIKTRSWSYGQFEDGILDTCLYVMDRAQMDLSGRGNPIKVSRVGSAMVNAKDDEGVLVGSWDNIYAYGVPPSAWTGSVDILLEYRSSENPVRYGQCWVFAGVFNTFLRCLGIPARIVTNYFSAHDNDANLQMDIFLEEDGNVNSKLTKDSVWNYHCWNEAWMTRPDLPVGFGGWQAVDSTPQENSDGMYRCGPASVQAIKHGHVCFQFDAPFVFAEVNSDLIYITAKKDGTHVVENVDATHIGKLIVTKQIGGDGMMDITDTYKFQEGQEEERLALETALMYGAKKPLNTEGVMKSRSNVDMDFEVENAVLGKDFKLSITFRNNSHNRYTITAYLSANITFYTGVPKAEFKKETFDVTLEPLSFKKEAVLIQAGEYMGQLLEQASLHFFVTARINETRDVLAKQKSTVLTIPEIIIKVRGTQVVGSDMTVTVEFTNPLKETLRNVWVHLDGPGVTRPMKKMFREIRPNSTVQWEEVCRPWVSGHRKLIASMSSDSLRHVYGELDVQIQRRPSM
As to the kind of experiment: bisubstrate, fluorescence-based transglutamination assay (dansylcadaverine / N,N-dimethylcasein). The format is biochemical. To be noted: pH 8.0, 37°C; for inhibition at 20 µM: pH 8, 20 μM. As for the experimental part:
The library of sulfated molecules was screened for inhibition of human FXIIIa using a modified bisubstrate, fluorescence-based transglutamination assay, as described earlier. Dansylcadaverine and N,N-dimethyl-casein were used as two substrates, which upon FXIIIa-dependence conjugation show a marked increase in fluorescence at 550 nm (λEX = 360 nm). Initial screening was performed at 200 μM NSGM concentration (1–15) or 50–1110 μM GAG concentration (16–22) (Table 1). At these levels, none of GAGs inhibited FXIIIa by more than 5%. […] Trimeric scaffolds 13 and 14 inhibited FXIIIa by 94% and 29%, respectively. […] To identify promising NSGMs from these, screening was performed at a lower concentration (20 μM).
Direct inhibition of human FXIIIa was measured spectrofluorometrically by a bisubstrate, fluorescence-based transglutamination assay at pH 8.0 and 37°C on a microplate reader (FlexStation III, Molecular Devices) (modified from earlier reports). Briefly, to each well of a 96-well microplate containing 80 μL of 50 mM TrisHCl buffer, pH 8.0, containing 100 mM NaCl, 10 mM CaCl2, and 2 mg/mL dimethylcasein was added 5 μL potential NSGM-based inhibitor (0–20 mM aqueous solution) or vehicle, 5 μL DTT (20 mM), and 5 μL enzyme (0.12–1.2 μM) at 37°C. After 5 min incubation, 5 μL of dansylcadaverine (2.5 mM) was rapidly added and the residual enzyme activity was measured from the initial rate of increase in RFU (λEM = 550 nm, λEX = 360 nm). Relative residual enzyme activity (Y) as a function of the concentration of sulfated molecule was fitted using logistic Eq 1 to obtain the potency (IC50), efficacy (ΔY) and Hill slope (HS) of inhibition. In this equation, YM and Yo are the maximal and minimal values of Y.

Where [1] appears, read: pH 8, 200 μM, read-out: FXIIIa inhibition at 200 μM (%).

In the case of `O=c1c(OS(=O)(=O)O)c(-c2ccc(OS(=O)(=O)O)c(OS(=O)(=O)O)c2)oc2cc(OS(=O)(=O)O)cc(OCCCOc3cc(OS(=O)(=O)O)cc4oc(-c5ccc(OS(=O)(=O)O)c(OS(=O)(=O)O)c5)c(OS(=O)(=O)O)c(=O)c34)c12` [Molecule 4], the inhibition at 200 µM under setting [1] is 67 ± 5%.

`O=c1c(OS(=O)(=O)O)c(-c2ccc(OS(=O)(=O)O)c(OS(=O)(=O)O)c2)oc2cc(OS(=O)(=O)O)cc(OS(=O)(=O)O)c12` [Molecule 1]: the “FXIIIa inhibition at 200 μM (%)” value was 31 ± 4^b %. The inhibition at 200 µM (pH 8, read-out: FXIIIa inhibition at 200 μM (%), 200 μM) was ~30%. For the compound `CO[C@H]1O[C@H](COS(=O)(=O)O)[C@@H](O[C@@H]2O[C@@H](C(=O)O)[C@@H](O[C@H]3O[C@H](COS(=O)(=O)O)[C@@H](O[C@@H]4O[C@H](C(=O)O)[C@@H](O[C@H]5O[C@H](COS(=O)(=O)O)[C@@H](O)[C@H](O)[C@H]5NS(=O)(=O)O)[C@H](O)[C@H]4O)[C@H](OS(=O)(=O)O)[C@H]3NS(=O)(=O)O)[C@H](O)[C@H]2OS(=O)(=O)O)[C@H](O)[C@H]1NS(=O)(=O)O` [Molecule 18, fondaparinux, reference compound], under “pH 8, at 360 μM”, the inhibition at 360 µM was ~0%. Turning to `O=c1c(OS(=O)(=O)O)c(-c2ccc(OS(=O)(=O)O)c(OC/C=C/COc3cc(-c4oc5cc(OS(=O)(=O)O)cc(O)c5c(=O)c4OS(=O)(=O)O)ccc3OS(=O)(=O)O)c2)oc2cc(OS(=O)(=O)O)cc(O)c12` [Molecule 8], under setting [1], the inhibition at 200 µM stood at 84 ± 5%. In the case of `O=S(=O)(O)OC[C@H]1O[C@@](COS(=O)(=O)O)(O[C@H]2O[C@H](COS(=O)(=O)O)[C@@H](OS(=O)(=O)O)[C@H](OS(=O)(=O)O)[C@H]2OS(=O)(=O)O)[C@@H](OS(=O)(=O)O)[C@@H]1OS(=O)(=O)O` [Molecule 22, sucrose octasulfate, reference compound], under setting [1], the inhibition at 200 µM is ~17%.

`O=c1c(OS(=O)(=O)O)c(-c2ccc(OS(=O)(=O)O)c(OS(=O)(=O)O)c2)oc2cc(OS(=O)(=O)O)cc(OC/C=C/COc3cc(OS(=O)(=O)O)cc4oc(-c5ccc(OS(=O)(=O)O)c(OS(=O)(=O)O)c5)c(OS(=O)(=O)O)c(=O)c34)c12` [Molecule 7] had an inhibition at 20 µM of 31 ± 3%. Moreover, the inhibition at 200 µM under setting [1] was 58 ± 4%. `O=S(=O)(O)Oc1cc2c(c(OS(=O)(=O)O)c1)C[C@H](OS(=O)(=O)O)[C@@H](c1ccc(OS(=O)(=O)O)c(OS(=O)(=O)O)c1)O2` [Molecule 2]: the “FXIIIa inhibition at 200 μM (%)” value is listed as 32 ± 6%. Moreover, under setting [1], the inhibition at 200 µM is ~30%.

`O=c1c(OS(=O)(=O)O)c(-c2ccc(OS(=O)(=O)O)c(OS(=O)(=O)O)c2)oc2cc(OS(=O)(=O)O)cc(OCCCCOc3cc(OS(=O)(=O)O)cc4oc(-c5ccc(OS(=O)(=O)O)c(OS(=O)(=O)O)c5)c(OS(=O)(=O)O)c(=O)c34)c12` [Molecule 6] yielded an inhibition at 20 µM of 40 ± 3%. Moreover, the inhibition at 200 µM under setting [1] was 89 ± 5%. Take `O=c1c(OS(=O)(=O)O)c(-c2ccc(OS(=O)(=O)O)c(OS(=O)(=O)O)c2)oc2cc(OS(=O)(=O)O)cc(OCCOc3cc(OS(=O)(=O)O)cc4oc(-c5ccc(OS(=O)(=O)O)c(OS(=O)(=O)O)c5)c(OS(=O)(=O)O)c(=O)c34)c12` [Molecule 3]: the inhibition at 20 µM lay in the range of 27 to 40%. For the setting “20 μM”, the “FXIIIa inhibition at 20 μM (%)” value is given as 26 ± 2%. Moreover, under setting [1], the inhibition at 200 µM is 65 ± 3%.

In the case of `NC(=O)CI` [IAA, Iodoacetamide, reference compound], the “HS, Hill slope (FXIIIa)” value is 0.8 ± 0.2; the IC50 is 2900 ± 400 nM; the “ΔY, efficacy (FXIIIa)” value came out at 105 ± 10%. Further, the “ΔY, efficacy (FXIIIa)” value (listed as Iodoacetamide) is on record as ~ 100%.
